Data from patent US4112228A, “7-(D-α-Hydroxy-2-arylacetamido)-3-(2-carboxyalkyl-2,3-dihydro-s-tri azolo-[4,3-b]pyridazin-3-on-6-ylthiomethyl)-3-cephem-4-carboxylic acids and derivatives” (priority 1977, dated 1978).
In brackets after ≈: the same amount, converted by molar mass.

Key:
[1] = Stability in solution (remaining activity by paper disc assay); assay type: physicochemical; details: for Remaining Activity (%): 0 days; for remaining at 48 h: 2 days; for remaining at 72 h: 3 days; for remaining at 168 h: 7 days
Experimental: Stability of BB-[…] was determined in both a 10% and an 0.02% solution. The stability is indicated as the relative activity remaining in the test solution at given periods to the initial solution. The activity was assayed using paper discs on B. subtilis PCI 219 plate (pH 6).

Pr. vulgaris = assay: MIC by Steers' agar dilution method; details: Proteus vulgaris
S. aureus Smith = assay: Standard experimental infection in mice; assay type: in vivo; details: Table 6
P. stuartii = assay: MIC by Steers' agar dilution method; details: Providencia stuartii
Kl. pneumoniae = assay: MIC by Steers' agar dilution method; assay type: cell-based; details: Klebsiella pneumoniae, MHA, Table 1
[2] = 0.02% solution, pH 4 (0.1 M AcOH - NaOAc buffer)
[3] = 0.02% solution, pH 7 (0.1 M phosphate buffer)
[4] = 0.1 m nh4oh-nh4cl buffer, 0.02% solution, pH 9 (0.1 M NH4 OH--NH4 Cl buffer)
[5] = 10% aqueous solution, room temperature, pH 6.1 (unadjusted)

O=C(O)Cn1nc2ccc(SCC3=C(C(=O)O)N4C(=O)C(NC(=O)[C@H](O)c5ccccc5)[C@H]4SC3)nn2c1=O (stereo partly drawn) [BB-S488, 7-(D-Mandelamido)-3-(2-carboxymethyl-2,3-dihydro-s-triazolo[4,3-b]pyridazin-3-on-6-ylthiomethyl)-3-cephem-4-carboxylic Acid]
Remaining Activity (%) [1, 2]: 100%
remaining at 48 h [1, 2]: 93%
remaining at 72 h [1, 2]: 78%
remaining at 168 h [1, 2]: 102%
Remaining Activity (%) [1, 3]: 100%
remaining at 48 h [1, 3]: 87%
remaining at 72 h [1, 3]: 64%
remaining at 168 h [1, 3]: 56%
Remaining Activity (%) ([1]; 0.02% solution, pH 9 (0.1 M NH4 OH--NH4 Cl buffer)): 100%
remaining at 24 h ([1]; 0.1 m nh4oh-nh4cl buffer, 0.02% solution, pH 9 (0.1 M NH4 OH--NH4 Cl buffer), 1 day): 20%
remaining at 48 h [1, 4]: 14%
remaining at 72 h [1, 4]: 13%
remaining at 168 h [1, 4]: 0%
Remaining Activity (%) [1, 5]: 100%
remaining at 48 h [1, 5]: 128%
remaining at 72 h [1, 5]: 90%
remaining at 168 h [1, 5]: 116%
MIC (Pr. vulgaris; A9436, MHA, Table 1): 0.1 µg/mL (≈ 0.175 µM)
MIC (Pr. vulgaris; A9699, MHA, Table 1): 0.2 µg/mL (≈ 0.349 µM)
MIC (Pr. vulgaris; ATCC9920, Pv-4 ATCC 9920, MHA, Table 3): 0.1 µg/mL (≈ 0.175 µM)
MIC (Pr. vulgaris; Pv-1 A9436, HIA, Table 4): 0.2 µg/mL (≈ 0.349 µM)
MIC (Pr. vulgaris; Pv-1 A9436, MHA, Table 3): 0.2 µg/mL (≈ 0.349 µM)
MIC (Pr. vulgaris; Pv-1 A9436, MHA, Table 4): 0.1 µg/mL (≈ 0.175 µM)
MIC (Pr. vulgaris; Pv-1 A9436, NA, Table 4): 0.2 µg/mL (≈ 0.349 µM)
MIC (Pr. vulgaris; Pv-2 A9526, MHA, Table 3): 6.3 µg/mL (≈ 11 µM)
MIC (Pr. vulgaris; Pv-3 A9699 (β-lactamase), HIA, Table 4): 100 µg/mL (≈ 175 µM)
MIC (Pr. vulgaris; Pv-3 A9699 (β-lactamase), MHA, Table 4): 0.8 µg/mL (≈ 1.4 µM)
MIC (Pr. vulgaris; Pv-3 A9699 (β-lactamase), NA, Table 4): 0.8 µg/mL (≈ 1.4 µM)
MIC (Pr. vulgaris; Pv-3 A9699, MHA, Table 3): 6.3 µg/mL (≈ 11 µM)
MIC (Pr. vulgaris; Pv-5 A9539, MHA, Table 3): 25 µg/mL (≈ 43.7 µM)
MIC (Pr. vulgaris; Pv-6 A9716, MHA, Table 3): 0.1 µg/mL (≈ 0.175 µM)
MIC (Pr. vulgaris; Pv-7 A21240, MHA, Table 3): 25 µg/mL (≈ 43.7 µM)
MIC (Pr. vulgaris; strain not given (1st of 2), MHA, Example 10): 0.1 µg/mL (≈ 0.175 µM)
MIC (Pr. vulgaris; strain not named (2nd of 2), MHA, Example 10): 0.8 µg/mL (≈ 1.4 µM)
No. of survivors/No. tested (S. aureus Smith; 0.1 mg./kg.): 2/5
No. of survivors/No. tested (S. aureus Smith; 0.4 mg./kg.): 5/5
No. of survivors/No. tested (S. aureus Smith; 1.6 mg./kg.): 5/5
No. of survivors/No. tested (S. aureus Smith; 6.3 mg./kg.): 5/5
No. of survivors/No. tested (S. aureus Smith; 25 mg./kg.): 5/5
ED50 (S. aureus Smith; Staphylococcus aureus, read-out: PD50): 0.12 mg/kg
MIC (P. stuartii; Ps-1 A20745, HIA, Table 4): 50 µg/mL (≈ 87.3 µM)
MIC (P. stuartii; Ps-1 A20745, MHA, Table 3): 0.4 µg/mL (≈ 0.699 µM)
MIC (P. stuartii; Ps-1 A20745, MHA, Table 4): 12.5 µg/mL (≈ 21.8 µM)
MIC (P. stuartii; Ps-1 A20745, NA, Table 4): 50 µg/mL (≈ 87.3 µM)
MIC (P. stuartii; Ps-2 A20894, HIA, Table 4): 0.4 µg/mL (≈ 0.699 µM)
MIC (P. stuartii; Ps-2 A20894, MHA, Table 3): 0.2 µg/mL (≈ 0.349 µM)
MIC (P. stuartii; Ps-2 A20894, MHA, Table 4): 0.2 µg/mL (≈ 0.349 µM)
MIC (P. stuartii; Ps-2 A20894, NA, Table 4): 0.8 µg/mL (≈ 1.4 µM)
MIC (P. stuartii; Ps-3 A20911 (β-lactamase), HIA, Table 4): 25 µg/mL (≈ 43.7 µM)
MIC (P. stuartii; Ps-3 A20911 (β-lactamase), MHA, Table 4): 12.5 µg/mL (≈ 21.8 µM)
MIC (P. stuartii; Ps-3 A20911 (β-lactamase), NA, Table 4): 50 µg/mL (≈ 87.3 µM)
MIC (P. stuartii; Ps-3 A20911, MHA, Table 3): 0.8 µg/mL (≈ 1.4 µM)
MIC (P. stuartii; Ps-4 A21051, MHA, Table 3): 50 µg/mL (≈ 87.3 µM)
MIC (P. stuartii; Ps-5 A21057, MHA, Table 3): 0.2 µg/mL (≈ 0.349 µM)
MIC (Kl. pneumoniae; A9678): 3.1 µg/mL (≈ 5.41 µM)
MIC (Kl. pneumoniae; A9867): 0.2 µg/mL (≈ 0.349 µM)
MIC (Kl. pneumoniae; A9977): 0.05 µg/mL (≈ 0.0873 µM)
